Assays:
MKP3^KBD = biological target: T1, MKP3^KBD (Homo sapiens, UniProt Q16828); assay: NMR titration (1H-15N HSQC); format: binding; details: 15N-labeled MKP3^KBD titrated with BCI, analysed at 1:4 M ratio
T1 construct: MKP3(1–154) (MKP3^KBD); made in house; host or cells: Escherichia coli BL21(DE3)
T1 sequence (Q16828 1-154): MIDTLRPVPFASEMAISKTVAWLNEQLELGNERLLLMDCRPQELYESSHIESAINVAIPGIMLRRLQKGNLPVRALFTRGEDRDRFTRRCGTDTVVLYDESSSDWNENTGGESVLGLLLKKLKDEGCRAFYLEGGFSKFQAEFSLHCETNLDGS
Description: NMR data were collected at 298 K on a Bruker AVANCE NEO 800 MHz spectrometer (Bruker BioSpin) equipped with a ^1H&^19F/^13C/^15N TCI cryogenic probe. Backbone resonances of MKP3^1–154 were assigned using 2D/3D experiments, including 2D ^1H–^15N HSQC and 3D ^1H/^13C/^15N CBCA(CO)NH, HNCACB, HNCO, and HN(CA)CO, performed with uniformly ^13C/^15N labeled protein at a final concentration of 0.39 mM in buffer containing 20 mM imidazole (pH 6.0), 100 mM NaCl, 5 mM DTT, 0.5 mM EDTA, and 5% (v/v) D2O. The buffer used for backbone resonance assignment was similar to that used for the previously reported NMR structure ([15]). NMR titration experiments were conducted using ^15N-labeled MKP3^1–154, MKP3^14–152, MKP3^204–350, MKP1^1–141, MKP2^5–159, MKPX^1–140, MKP4^1–143, and MKP5^139–287. 2D ^1H–^15N HSQC spectra of ^15N-labeled MKPs^KBD (0.1 mM) were acquired in the absence and presence of BCI (50 mM stock in DMSO-d6) in buffer containing 50 mM KH2PO4–K2HPO4 (pH 7.2), 100 mM KCl, 1 mM Tris(2-carboxyethyl)phosphine hydrochloride, 1 mM EDTA, and 5% (v/v) D2O. Control experiments, in which only the corresponding volume of DMSO-d6 was added to ^15N-labeled proteins, were performed to exclude possible effects of DMSO on the interactions. For ^15N T1 measurements, the relaxation delay times were set to 20 (×2), 100, 200 (×2), 300, 400, 600 (×2), 800, 1200, and 1600 ms. For ^15N T2 measurements, the delay times were 7.84, 15.68 (×2), 23.52, 31.36 (×2), 39.2, 47.04 (×2), 54.88, 62.72, 78.4, 94.08, and 109.76 ms. The relaxation rates R1 (1/T1) and R2 (1/T2) for each residue were determined by fitting the peak intensities from spectra acquired at the various delay times to a single-exponential decay function: I/I0 = exp(-R1,2·t), where I0 is the intensity at t = 0, and I is the intensity at a delay time t. Repeated measurements were used to estimate the uncertainties of the R1 and R2 values via Monte Carlo analysis. Heteronuclear steady-state ^1H–^15N NOE experiments were acquired in an interleaved mode, with 5 s of ^1H saturation for NOE build-up and 5 s of relaxation delay for the reference spectra. Repeated experiments were performed to estimate uncertainties, and the propagated error for each NOE value was calculated using the following equation: σNOE = NOE × ((σsat/Isat)^2+(σunsat/Iunsat)^2)^1/2, where σsat and σunsat are the SDs of the saturated and unsaturated spectra, respectively, and Isat and Iunsat are the corresponding signal intensities. NMR data were processed using TopSpin 4.1.1 (Bruker BioSpin) or NMRPipe ([54]) and analyzed with POKY ([55]).

MKP3 R83G = biological target: T2, MKP3 R83G (Homo sapiens, UniProt Q16828, R83G); assay: Phosphatase activity of MKP3 mutant toward pNPP with ERK2; format: biochemical; details: 1 µM enzyme, 1 µM ERK2, 8 mM pNPP, 2.5 μM BCI
T2 construct: MKP3(1–381) (MKP3^FL); made in house; host or cells: Escherichia coli BL21(DE3)
T2 sequence (Q16828 1-381 R83G): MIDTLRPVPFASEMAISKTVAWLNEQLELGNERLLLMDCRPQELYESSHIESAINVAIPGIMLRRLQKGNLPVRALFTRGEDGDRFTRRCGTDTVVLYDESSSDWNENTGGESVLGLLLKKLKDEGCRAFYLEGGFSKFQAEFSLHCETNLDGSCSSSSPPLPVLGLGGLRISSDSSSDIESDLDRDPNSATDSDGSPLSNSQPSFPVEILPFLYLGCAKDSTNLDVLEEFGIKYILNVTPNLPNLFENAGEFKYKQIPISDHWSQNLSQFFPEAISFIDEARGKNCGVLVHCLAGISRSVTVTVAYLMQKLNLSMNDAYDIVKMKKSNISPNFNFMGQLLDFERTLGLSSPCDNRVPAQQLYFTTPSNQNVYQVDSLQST
Description: The phosphatase activity of MKP3 toward pNPP was measured using continuous spectrophotometric assays, either in the absence or the presence of ERK2 at a 1:1 M ratio with MKP3. Experiments were conducted at 25 °C in a reaction mixture with a total volume of 1.8 ml, containing 50 mM Mops (pH 7.0), 100 mM NaCl, and 0.1 mM EDTA. MKP3 (1 μM) was preincubated with varying concentrations of the inhibitor BCI for 5 min before initiating the reaction by adding pNPP at concentrations ranging from 0 to 14 mM. Continuous absorbance changes were recorded using a PerkinElmer LAMBDA 45 spectrophotometer equipped with a magnetic stirrer in the cuvette holder. The production of p-nitrophenol was monitored at 410 nm using an extinction coefficient of 18,000 M^-1 cm^-1.
Figure S2. Inhibition of full-length MKP3 mutant activity by BCI. The phosphatase activities (v0) of full-length MKP3 and its mutants (E81G, R83G, R85G, R87G, and R89A) at 1 µM concentration were measured using continuous spectrophotometric assays with 8 mM pNPP as the substrate, in the presence of ERK2 (1 µM), either without or with 2.5 μM BCI. Data are presented as mean ± SD (n = 3). Reactions were performed at 25 °C in a total volume of 1.8 mL, in a buffer containing 50 mM MOPS (pH 7.0), 100 mM NaCl, and 0.1 mM EDTA.

perturbation of NMR spectrum (MKP3^KBD): significant peak broadening | enzymatic activity upon BCI addition compared with MKP3^WT (MKP3 R83G): higher enzymatic activity than WT MKP3
SMILES: O=C1/C(=C/c2ccccc2)C(NC2CCCCC2)c2ccccc21 (centres unmarked) [BCI, (E)-2-benzylidene-3-(cyclohexylamino)-2,3-dihydro-1H-inden-1-one]
